# Assay results as given in patent US20250205304A1, “CD300LD INHIBITOR AND USE THEREOF IN THE PREPARATION OF TUMOR IMMUNOTHERAPY PRODUCTS” (FUDAN UNIVERSITY, priority 2021, published 2025).
# B1: S100A8/A9 proteins: S100A8/A9 proteins added in the in vitro migration assay (protein, UniProt P05109 1-93; P06702 1-114, looked up)
# Protein S100-A8: MLTELEKALNSIIDVYHKYSLIKGNFHAVYRDDLKKLLETECPQYIRKKGADVWFKELDINTDGAVNFQEFLILVIKMGVAAHKKSHEESHKE
# Protein S100-A9: MTCKMSQLERNIETIINTFHQYSVKLGHPDTLNQGEFKELVRKDLQNFLKKENKNEKVIEHIMEDLDTNADKQLSFEEFIMLMARLTWASHEKMHEGDEGPGHHHKPGLGEGTP
# Assays:
# PMN-MDSC [1] = experiment: T cell proliferation inhibition assay of PMN-MDSC; type: cell-based, mice
# Procedure: 6-4) T cell proliferation assay: spleens of OT-1 mice were isolated, single-cell suspensions in PBS (5×10^7 cells/ml) were prepared, and CTV dye with a final concentration of […] was added to obtain a mixture. The mixture was incubated in a 37° C. water bath for 20 minutes, added with 5 times the volume of ice pre-cooled RPMI medium (RPMI-1640+10% FBS), mixed by inversion, stood at room temperature for 5 minutes, centrifuged for 5 minutes at 400 g, and then resuspended in RPMI medium (1×10^6 cells/ml). 80 μl of CTV-labeled cells was added with 40 μl of OVA peptide at a concentration of 100 ng/ml, and then supplemented with 80 μl of RPMI medium. The solution was added to the wells of a 96-well U bottom plate and incubated at 37° C. in a carbon dioxide incubator, and then antibody labeling and flow assay were carried out 48-72 hr later.
# 6-5) T cell proliferation inhibition assay of PMN-MDSC: spleens of B16 tumor-bearing mice were isolated, single-cell suspensions were prepared and labeled with antibodies, and PMN-MDSC cells (CD45^+/CD11b^+/Lying6G^+) were sorted by flow cytometry and resuspended in RPMI medium (1×10^6 cells/ml). 80 μl of CTV-labeled cells in […]) was added with 40 μl of OVA peptide at a concentration of 100 ng/ml, PMN-MDSC cells, and culture medium. […]
# B16 tumor = B16 tumor model with intraperitoneal Tasquinimod; type: in vivo, mice; conditions: for tumor growth: 20 μg/mouse intraperitoneally
# Procedure: 7-2) Tumor model: B16 cells (1.5×10^5 cells/mouse) were inoculated into mice subcutaneously, and 20 μg of Tasquinimod/mouse was injected intraperitoneally on day 2. Tumor size was measured every 2-3 days, and tumor growth curves were plotted. Tumors were isolated from mice on day 19, and the percentage of immune cells was determined by flow analysis.
# PMN-MDSC [2] = experiment: PMN-MDSC in vitro cell migration assay (Transwell); type: cell-based, mice; conditions: KO PMN-MDSCs, 2 hr
# Procedure: 6-2) PMN-MDSC in vitro cell migration assay (Transwell): single-cell suspensions were prepared from isolated spleens of tumor-bearing mice and labeled with antibodies, and PMN-MDSC cells (CD45+/CD11b+/Ly6G+) were sorted. 10^5 PMN-MDSC cells were added to the upper layer of Transwell and then placed in a 37° C. incubator for 2 hr, and then the number of PMN-MDSC cells in the lower layer was analyzed by flow assay to calculate the migration ratio of the cells.
# 7-1) PMN-MDSC in vitro cell migration assay (Transwell): spleens of B16 tumor-bearing mice were isolated, single-cell suspensions were prepared and labeled with antibodies, and PMN-MDSC cells (CD45+/CD11b+/Lying6G+) were sorted by flow cytometry. 10^5 PMN-MDSC cells were added to the upper layer of Transwell and then placed in a 37° C. incubator, and then S100A8/A9 inhibitor (Tasquinimod) or DMSO control with a final concentration of 1 μg/ml was added, the number of PMN-MDSC cells in the lower layer was analyzed by flow-assay after 2 hr, and the percentage of cell migration was calculated.
Molecule,inhibitory effect of PMN-MDSCs on T cell proliferation (PMN-MDSC [1]; KO PMN-MDSCs),inhibitory effect of PMN-MDSCs on T cell proliferation (PMN-MDSC [1]; WT PMN-MDSCs),tumor growth (B16 tumor; CD300LD KO mice),tumor growth (B16 tumor; WT mice),"proportion of intratumoral PMN-MDSCs (B16 tumor; tumors isolated on day 19, WT and KO mice)",in vitro migration ability of PMN-MDSC (PMN-MDSC [2])
COc1cccc2c1c(O)c(C(=O)N(C)c1ccc(C(F)(F)F)cc1)c(=O)n2C [Tasquinimod],little effect,significantly reduced the inhibitory effect,barely inhibited tumor growth,inhibited tumor growth,consistent with the changes of tumors,–
B1,–,–,–,–,–,enhance the weakened migration ability
